Measurements reported in patent US11351131B2, “Anti-inflammatory composition” (NEOPHARM CO., LTD., priority 2016, dated 2022).

Experiments:
IL-17A = assay: Anti-inflammatory effect: IL-17A expression in atopic dermatitis-induced 3D skin model (immunohistochemistry); type: cell-based; settings: compared with the atopic dermatitis-induced skin model, 72 hours, quantified immunohistochemistry, read-out: IL-17A inhibitory effect
Experimental: (§1) In order to measure the anti-inflammatory efficacy, atopic dermatitis was induced with respect to IL-8 and IL-17A, which are inflammation-inducing cytokines, and expression amounts thereof were measured.
(§2) In order to induce atopic dermatitis, the 3D culture tissue (EpiDerm Full Thickness 400, sold by MatTek) media containing Poly (I:C), TNF-α, IL-4 and IL-13 were used, and treated for 72 hours with N-(2-hydroxyethyl)octanamide at a final concentration of 100 μM. Then, the 3D culture tissue was immobilized on formalin to make a paraffin block, and the degree of expression of inflammation-inducing cytokine was evaluated.
(§3) In FIG. 1, AD represents a skin model in which atopic dermatitis was induced, and the anti-inflammatory effect was evaluated based on the expression amounts of IL-8 and IL-17A.
(§4) Further, the inhibitory effect of each cytokine was quantified based on the results obtained through the immunohistochemistry obtained in FIG. 1, and shown in FIG. 2.

[1] = test system: human fibroblast (ATCC 2076); assay: Confirmation of cytotoxicity (MTT cell viability); type: cell-based; settings: for Cell viability (%): human fibroblast, MTT
Experimental: The cell viability for human fibroblast (ATCC 2076) was measured using the anti-inflammatory composition prepared in the following Examples.
The human fibroblast (ATCC 2076) with a concentration of 5×10^4 cells/ml was inoculated into a 24-well culture plate of Iscove's Modified Dulbecco's Medium (IMDM, GIBCO) containing 10% bovine serum. […] Then, the supernatant was removed, the cells were washed with 200 μl of 5% phosphate buffered saline (PBS), 1.0 ml of MTT solution was added to each well, and after 4 hours, and the MTT was removed. Next, 1.0 ml of DMSO was added to each well, and incubation was performed overnight at 37° C. The absorbance at 570 nm was measured to determine the cell viability using Equation 1 below, and results thereof are shown in Table 1 below. Here, as a negative control group, a test group in which the active ingredient was not used was adopted. Cell viability (%)=(A570λ value/B570λ value)×100 [Equation 1]
A: Absorbance value at 570 nm of Example
B: Absorbance value at 570 nm of negative control group

atopic dermatitis = assay: Atopic dermatitis improvement effect (EASI score); type: in vivo, human; settings: 30 pediatric patients with atopic dermatitis, twice a day for 4 weeks
Experimental: In order to measure atopic dermatitis improvement effect, the anti-inflammatory compositions were prepared according to the following Examples. Here, the atopic dermatitis improvement effect was measured using an eczema area severity index (EASI) score. 30 pediatric patients with atopic dermatitis were treated twice a day for 4 weeks, and then effects on atopic symptoms were measured. Here, as a negative control group, a test group in which the active ingredient was not used was adopted.

IL-8 = assay: Anti-inflammatory effect: IL-8 expression in atopic dermatitis-induced 3D skin model (immunohistochemistry); type: cell-based; settings: compared with the atopic dermatitis-induced skin model, 72 hours, quantified immunohistochemistry, read-out: IL-8 inhibitory effect
Experimental: as §1, §2, §3, §4

Structure (SMILES): CCCCCCCC(=O)NCCO [Example 1, N-(2-hydroxyethyl)octanamide]
- inhibition at 100 µM (IL-17A): ≥ 57.5%
- Cytotoxicity ([1]; in the concentration range of the evaluation method): no cytotoxicity
- Cell viability (%) ([1]; used amount 0.00064 μM): 100%
- Cell viability (%) ([1]; used amount 0.0032 μM): 102%
- Cell viability (%) ([1]; used amount 0.016 μM): 97%
- Cell viability (%) ([1]; used amount 0.08 μM): 98%
- Cell viability (%) ([1]; used amount 0.4 μM): 98%
- Cell viability (%) ([1]; used amount 2 μM): 101%
- Cell viability (%) ([1]; used amount 10 μM): 103%
- Cell viability (%) ([1]; used amount 50 μM): 98%
- Cell viability (%) ([1]; used amount 250 μM): 109%
- Atopic dermatitis improvement effect (EASI score) (atopic dermatitis): significant numerical decrease
- inhibition at 100 µM (IL-8): ≥ 48.6%
